According to US4853209A, “Bone marrow suppressing agents” (The Dow Chemical Company, priority 1987, dated 1989):
Where two headings read alike, the source gives them in different places.

What was measured:
bone marrow [1] = conditions: normal beagles, various dose levels, weekly blood samples
Protocol: A series of normal beagles was treated with various dose levels of the composition of Example 7. Blood samples were obtained weekly with white blood cell and platelet counts taken to monitor for signs of bone marrow suppression.

[2] = rat
Protocol: Quantitative biodistributions in rats are obtained by injecting 50-100 microliters (μl) of the radionuclide composition into the tail vein of unanesthetized laboratory rats. After a given period of time, the rats are sacrificed by cervical dislocation and various organs and tissues removed. The tissue samples are then rinsed, blotted dry and weighed. The radioactivity in the tissue samples are measured using a NaI scintillation counter in order to determine the biolocalization of the radionuclide.
The numbers given for each Example, with respect to Tables I, II and III represent the percentage of the administered dose which localized in the indicated tissue. The ratio of radioactivity observed in bone relative to other organs was calculated based on the percent dose per gram in the bone and in the particular organ.
A series of rats was injected with the composition of Example 7 and sacrificed in groups of five at various intervals.

[3] = Two hour rat biolocalization of radionuclide compositions (Tables I, II, III); format: in vivo; conditions: 2 h, average of five rats; for Bone/Blood Ratio / Bone/Muscle Ratio: from percent dose per gram; for % Dose in Blood / % Dose in Liver / % Dose in Skeleton / % Dose in Urine / % Dose in Muscle: tail vein
Protocol: A vial is used to prepare the sample for injection. The vial contains 210 mg EDTMP and 140 mg of NaOH such that addition of 6 ml of a 3×10^-4 M Ho-166 solution in 0.1M HCl gave a final pH in the range of 7-8, forming the Ho-166 EDTMP composition. After checking the pH, samples were drawn for injection into Sprague-Dawley rats. Rats were injected with 100 microliters of the solution via a tail vein. Two hours after the injection the rats were killed by cervical dislocation and dissected. The amount of radiation in each tissue was obtained by counting in a NaI well counter and comparing to standards.
The biolocalization of compositions prepared as described in Examples 7, 8, 9 and 10 was determined in rats.
The numbers given in Table I represent the average of the results of five rats per Example.
The biolocalization of the composition prepared as described in Example 12 was determined in rats.
The numbers given in Table II represent the average of the results of testing in three rats.
The biolocalization of compositions prepared as described in Examples 14 and 15 was determined in rats.
The numbers given in Table III represent the average of the results of five rats per Example.

[4] = rabbit, three hours, averaged for 5 rabbits
Protocol: The composition of Example 7 was also evaluated in rabbits. The rabbits were injected with 100-250 microliters of the composition via a cannula placed in the marginal ear vein.
Three hours after injection, a blood sample was taken by cardiac puncture and the animal was then sacrificed by injection of a commercial euthanasia solution.

bone marrow [5] = conditions: mouse about 20 g, 198 μCi, six days
Protocol: A mouse weighing about 20 g is injected with 198 μCi of a Ho-166 EDTMP composition. After six days, the animal is sacrificed and both femurs and the sternum removed. The same bones are also taken from a nontreated animal (control). The tissues are fixed using standard histochemical procedures and decalcified using formic acid. The tissues are embedded in paraffin, three micron sections cut, placed on glass slides, and stained with hematoxilyn and eosin.

SMILES: O=P(O)(O)CN(CCN(CP(=O)(O)O)CP(=O)(O)O)CP(=O)(O)O.[153Sm] [Example 7]
- platelet count (bone marrow [1]): dose dependent reduction
- white blood cell count (bone marrow [1]): dose dependent reduction
- blood clearance [2]: rapid blood clearance
- uptake in bone [2]: rapid uptake in bone
- Bone/Blood ([2]; 1 Hr): 120
- Bone/Muscle ([2]; 1 Hr): 300
- Percent of the Administered Dose, Blood ([2]; 1 Hr): 0.5% of the Administered Dose
- Percent of the Administered Dose, Kidneys ([2]; 1 Hr): 0.47% of the Administered Dose
- Percent of the Administered Dose, Liver ([2]; 1 Hr): 0.32% of the Administered Dose
- Percent of the Administered Dose, Skeleton ([2]; 1 Hr): 58% of the Administered Dose
- Percent of the Administered Dose, Urine ([2]; 1 Hr): 47% of the Administered Dose
- Bone/Blood ([2]; 2 Hrs): 1800
- Bone/Muscle ([2]; 2 Hrs): 1500
- Percent of the Administered Dose, Blood ([2]; 2 Hrs): 0.03% of the Administered Dose
- Percent of the Administered Dose, Kidneys ([2]; 2 Hrs): 0.25% of the Administered Dose
- Percent of the Administered Dose, Liver ([2]; 2 Hrs): 0.25% of the Administered Dose
- Percent of the Administered Dose, Skeleton ([2]; 2 Hrs): 58% of the Administered Dose
- Percent of the Administered Dose, Urine ([2]; 2 Hrs): 49% of the Administered Dose
- Bone/Blood ([2]; 5 Hrs): 4200
- Bone/Muscle ([2]; 5 Hrs): 3600
- Percent of the Administered Dose, Blood ([2]; 5 Hrs): 0.008% of the Administered Dose
- Percent of the Administered Dose, Kidneys ([2]; 5 Hrs): 0.36% of the Administered Dose
- Percent of the Administered Dose, Liver ([2]; 5 Hrs): 0.37% of the Administered Dose
- Percent of the Administered Dose, Skeleton ([2]; 5 Hrs): 59% of the Administered Dose
- Percent of the Administered Dose, Urine ([2]; 5 Hrs): 46% of the Administered Dose
- Bone/Blood ([2]; 15 Min): 7
- Bone/Muscle ([2]; 15 Min): 30
- Percent of the Administered Dose, Blood ([2]; 15 Min): 5.9% of the Administered Dose
- Percent of the Administered Dose, Kidneys ([2]; 15 Min): 1.745% of the Administered Dose
- Percent of the Administered Dose, Liver ([2]; 15 Min): 0.96% of the Administered Dose
- Percent of the Administered Dose, Skeleton ([2]; 15 Min): 48% of the Administered Dose
- Percent of the Administered Dose, Urine ([2]; 15 Min): 28% of the Administered Dose
- Bone/Blood ([2]; 24 Hrs): 6700
- Bone/Muscle ([2]; 24 Hrs): 2400
- Percent of the Administered Dose, Blood ([2]; 24 Hrs): 0.007% of the Administered Dose
- Percent of the Administered Dose, Kidneys ([2]; 24 Hrs): 0.25% of the Administered Dose
- Percent of the Administered Dose, Liver ([2]; 24 Hrs): 0.35% of the Administered Dose
- Percent of the Administered Dose, Skeleton ([2]; 24 Hrs): 52% of the Administered Dose
- Percent of the Administered Dose, Urine ([2]; 24 Hrs): 55% of the Administered Dose
- Bone/Blood ([2]; 30 Min): 20
- Bone/Muscle ([2]; 30 Min): 70
- Percent of the Administered Dose, Blood ([2]; 30 Min): 2.3% of the Administered Dose
- Percent of the Administered Dose, Kidneys ([2]; 30 Min): 0.805% of the Administered Dose
- Percent of the Administered Dose, Liver ([2]; 30 Min): 0.53% of the Administered Dose
- Percent of the Administered Dose, Skeleton ([2]; 30 Min): 53% of the Administered Dose
- Percent of the Administered Dose, Urine ([2]; 30 Min): 42% of the Administered Dose
- Bone/Blood ([2]; 48 Hrs): 8200
- Bone/Muscle ([2]; 48 Hrs): 2800
- Percent of the Administered Dose, Blood ([2]; 48 Hrs): 0.006% of the Administered Dose
- Percent of the Administered Dose, Kidneys ([2]; 48 Hrs): 0.29% of the Administered Dose
- Percent of the Administered Dose, Liver ([2]; 48 Hrs): 0.46% of the Administered Dose
- Percent of the Administered Dose, Skeleton ([2]; 48 Hrs): 60% of the Administered Dose
- Percent of the Administered Dose, Urine ([2]; 48 Hrs): 50% of the Administered Dose
- Bone/Blood ([2]; 72 Hrs): 7800
- Bone/Muscle ([2]; 72 Hrs): 3400
- Percent of the Administered Dose, Blood ([2]; 72 Hrs): 0.006% of the Administered Dose
- Percent of the Administered Dose, Kidneys ([2]; 72 Hrs): 0.22% of the Administered Dose
- Percent of the Administered Dose, Liver ([2]; 72 Hrs): 0.49% of the Administered Dose
- Percent of the Administered Dose, Skeleton ([2]; 72 Hrs): 57% of the Administered Dose
- Percent of the Administered Dose, Urine ([2]; 72 Hrs): 53% of the Administered Dose
- clearance of the radioactivity from the skeletal system ([2]; throughout the course of the experiment): no significant clearance of the radioactivity from the skeletal system
- Bone/Blood Ratio [3]: 1800
- Bone/Muscle Ratio [3]: 1500
- % Dose in Blood [3]: 0.032 % Dose
- % Dose in Liver [3]: 0.25 % Dose
- % Dose in Skeleton [3]: 58 % Dose
- % Dose in Urine [3]: 49 % Dose
- % Dose in Blood ([4]; marginal ear vein): 0.12 % Dose
- % Dose in Liver ([4]; marginal ear vein): 0.95 % Dose
- % Dose in Skeleton ([4]; marginal ear vein): 66 % Dose
- % Dose in Urine ([4]; marginal ear vein, 180 min): 34 % Dose
- Bone/Blood Ratio [4]: 900
- Bone/Muscle Ratio [4]: 1200

SMILES: O=P(O)(O)CN(CCN(CP(=O)(O)O)CP(=O)(O)O)CP(=O)(O)O.[159Gd] [Example 14]
- Bone/Blood Ratio [3]: 305
- Bone/Muscle Ratio [3]: 577
- % Dose in Blood [3]: 0.15 % Dose
- % Dose in Liver [3]: 0.25 % Dose
- % Dose in Muscle [3]: 0.56 % Dose
- % Dose in Skeleton [3]: 57 % Dose

SMILES: O=P(O)(O)CN(CCO)CCN(CP(=O)(O)O)CP(=O)(O)O.[153Sm] [Example 9]
- Bone/Blood Ratio [3]: 1300
- Bone/Muscle Ratio [3]: 1300
- % Dose in Blood [3]: 0.035 % Dose
- % Dose in Liver [3]: 0.45 % Dose
- % Dose in Skeleton [3]: 57 % Dose
- % Dose in Urine [3]: 50 % Dose

SMILES: O=P(O)(O)CN(CCN(CP(=O)(O)O)CP(=O)(O)O)CCN(CP(=O)(O)O)CP(=O)(O)O.[153Sm] [Example 8]
- Bone/Blood Ratio [3]: 224
- Bone/Muscle Ratio [3]: 220
- % Dose in Blood [3]: 0.16 % Dose
- % Dose in Liver [3]: 0.27 % Dose
- % Dose in Skeleton [3]: 30 % Dose
- % Dose in Urine [3]: 74 % Dose

SMILES: O=P(O)(O)CN(CCN(CCN(CP(=O)(O)O)CP(=O)(O)O)CCN(CP(=O)(O)O)CP(=O)(O)O)CP(=O)(O)O.[153Sm] [Example 10]
- Bone/Blood Ratio [3]: 80
- Bone/Muscle Ratio [3]: 410
- % Dose in Blood [3]: 0.25 % Dose
- % Dose in Liver [3]: 0.18 % Dose
- % Dose in Skeleton [3]: 28 % Dose
- % Dose in Urine [3]: 65 % Dose

SMILES: O=P(O)(O)CN(CCN(CP(=O)(O)O)CP(=O)(O)O)CP(=O)(O)O.[166Ho] [Example 12]
- suppression of the marrow (bone marrow [5]): suppression of the marrow
- density of hemapoetic stem cells in marrow (bone marrow [5]; vs nontreated control): significantly lower density of hemapoetic stem cells
- number of red blood cells in marrow (bone marrow [5]; vs nontreated control): significantly higher number of red blood cells

SMILES: O=P(O)(O)CN(CCO)CCN(CP(=O)(O)O)CP(=O)(O)O.[159Gd] [Example 15]
- Bone/Blood Ratio [3]: 335
- Bone/Muscle Ratio [3]: 548
- % Dose in Blood [3]: 0.14 % Dose
- % Dose in Liver [3]: 0.57 % Dose
- % Dose in Muscle [3]: 0.76 % Dose
- % Dose in Skeleton [3]: 60 % Dose
